US6222043A, “Methods of preparing novel dipeptide compounds or pharmaceutically acceptable salts thereof” (Japan Energy Corporation, priority 1995, dated 2001)

Assay: Pharmacokinetics in rats, intravenous or intraduodenal administration
Assay type: in vivo
Details: rat
Experimental: Metabolic characteristics of the dipeptide compounds of the present invention was evaluated using rats. Tested compounds dissolved in vehicle was administered intraduodenally or intravenously. After administration, blood was taken and the concentration of residual tested compound in plasma was analyzed. The dosage of the tested compound was described in table 3.

| Compound | AUC (i.d., 20.0 mg/kg) [µg/mL/min] | F (bioavailability on intraduodenal administration) (i.d., 20.0 mg/kg) [%] | AUC (i.v., 10.0 mg/kg) [µg/mL/min] | MRT (i.v., 10.0 mg/kg) [min] | t1/2 (λ) (i.v., 10.0 mg/kg) [min] | AUC (i.d., 10.0 mg/kg) [µg/mL/min] | F (bioavailability on intraduodenal administration) (i.d., 10.0 mg/kg) [%] |
| --- | --- | --- | --- | --- | --- | --- | --- |
| Cc1c(O)cccc1C(=O)N[C@@H](Cc1ccccc1)[C@H](O)C(=O)N1CSC[C@H]1C(=O)NC(C)(C)C [Compound of example 21, (R)-N-tert-butyl-3-[(2S,3S)-2-hydroxy-3-[3-hydroxy-2-methylbenzoyl]amino-4-phenylbutanoyl]-1,3-thiazolidine-4-carboxamide] | 101 | 45.41 | 111 | 31.7 | 35.98 |  |  |
| Cc1c(O)cccc1C(=O)N[C@@H](Cc1ccccc1)[C@H](O)C(=O)N1CSC(C)(C)[C@H]1C(=O)NC(C)(C)C [Compound of example 22, (R)-N-tert-butyl-3-[(2S,3S)-2-hydroxy-3-[3-hydroxy-2-methylbenzoyl]amino-4-phenylbutanoyl]-5,5-dimethyl-1,3-thiazolidine-4-carboxamide] | 106 | 47.53 | 111 | 22.9 | 23.89 |  |  |
| CCc1c(O)cccc1C(=O)N[C@@H](Cc1ccccc1)[C@H](O)C(=O)N1CSC[C@H]1C(=O)NC(C)(C)C [Compound of example 31, (R)-N-tert-butyl-3-[(2S,3S)-2-hydroxy-3-(2-ethyl-3-hydroxybenzoyl)amino-4-phenylbutanoyl]-1,3-thiazolidine-4-carboxamide] |  |  | 276 | 96.0 | 73.81 | 99 | 36.24 |
| CCc1c(O)cccc1C(=O)N[C@@H](Cc1ccccc1)[C@H](O)C(=O)N1CSC(C)(C)[C@H]1C(=O)NC(C)(C)C [Compound of example 36, (R)-N-tert-butyl-3-[(2S,3S)-3-(2-ethyl-3-hydroxybenzoyl)amino-2-hydroxy-4-phenylbutanoyl]-5,5-dimethyl-1,3-thiazolidine-4-carboxamide] |  |  | 174 | 88.9 | 83.90 | 64 | 37.01 |
| CSC[C@H](NC(=O)COc1cccc2cnccc12)C(=O)N[C@@H](Cc1ccccc1)[C@H](O)C(=O)N1CSC[C@H]1C(=O)NC(C)(C)C [KNI-272, (R)-3-[(2S,3S)-3-(N-(isoquinoline-5-yloxy)acetylmethylthio-L-alanyl)amino-2-hydroxy-4-phenylbutanoyl]1,3-thiazolidine-4-N'-t-butylcarboxamide, reference compound] |  |  | 224 | 23.2 | 25.57 | 98 | 43.20 |

Now from value to molecule:

| AUC (i.d., 20.0 mg/kg) [µg/mL/min] | F (bioavailability on intraduodenal administration) (i.d., 20.0 mg/kg) [%] | AUC (i.v., 10.0 mg/kg) [µg/mL/min] | MRT (i.v., 10.0 mg/kg) [min] | t1/2 (λ) (i.v., 10.0 mg/kg) [min] | AUC (i.d., 10.0 mg/kg) [µg/mL/min] | F (bioavailability on intraduodenal administration) (i.d., 10.0 mg/kg) [%] | Compound |
| --- | --- | --- | --- | --- | --- | --- | --- |
|  |  | 124 | 31.9 | 40.51 | 40 | 32.26 | Cc1ccccc1CNC(=O)[C@@H]1CSCN1C(=O)[C@@H](O)[C@H](Cc1ccccc1)NC(=O)c1cccc(O)c1C [Compound of example 34, (R)-N-(2-methylbenzyl)-3-[(2S,3S)-3-(3-hydroxy-2-methylbenzoyl)amino-2-hydroxy-4-phenylbutanoyl]-1,3-thiazolidine-4-carboxamide] |
|  |  | 131 | 74.7 | 92.63 | 55 | 41.55 | Cc1ccccc1CNC(=O)[C@H]1N(C(=O)[C@@H](O)[C@H](Cc2ccccc2)NC(=O)c2cccc(O)c2C)CSC1(C)C [Compound of example 37, (R)-N-(2-methylbenzyl)-3-[(2S,3S)-3-(3-hydroxy-2-methylbenzoyl)amino-2-hydroxy-4-phenylbutanoyl]-5,5-dimethyl-1,3-thiazolidine-4-carboxamide] |
